Experimental data reported in PubChem BioAssay AID248 (DTP/NCI, 2004).
Where “and” joins values, the source holds several entries; their conditions need not be identical. Identical values can stand only once. Inconclusive results and toxic doses are left out. No stated cut-off is given here; in the data, active means T/C of 150% or more; inactive means T/C below 125%.

Test system: L1210 leukemia ip in BDF1 mice, survival T/C
Experiment: NCI In Vivo Anticancer Drug Screen. Data for tumor model L1210 Leukemia (intraperitoneal) in B6D2F1 (BDF1) mice
Settings: endpoint: mean survival time, higher = longer survival
In short: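 Antitumor effect is assessed in tumor-bearing animals. Survival in the compound arm is compared with a vehicle-dosed control arm and expressed as their quotient.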

[1] = dose: 100.0 mg/kg/injection, schedule: Q04DX003 (ip), vehicle: saline with Tween-80
[2] = dose: 100.0 mg/kg/injection, schedule: Q04DX003 (ip), vehicle: saline
[3] = dose: 200.0 mg/kg/injection, schedule: Q04DX003 (ip), vehicle: saline with Tween-80
[4] = dose: 400.0 mg/kg/injection, schedule: Q01DX009 (ip), vehicle: Klucel (hydroxypropylcellulose) (HPC)

Measured: T/C

CCCCC(=O)N(c1ccc(Nc2c3ccccc3nc3cc([N+](=O)[O-])ccc23)cc1)S(C)(=O)=O
inactive: dose: 3.18 mg/kg/injection, schedule: Q01DX009 (sc), vehicle: saline 119 % of control | dose: 25.0 mg/kg/injection, schedule: Q01DX009 (ip), vehicle: saline with Tween-80 95 % of control | dose: 67.0 mg/kg/injection, schedule: Q04DX003 (ip), vehicle: saline 92 % of control | [2] 103 % of control | [3] 100 % of control
active: dose: 6.25 mg/kg/injection, schedule: Q01DX009 (ip), vehicle: saline with Tween-80 160 % of control | dose: 16.5 mg/kg/injection, schedule: Q04DX003 (ip), vehicle: saline with Tween-80 150 % of control | dose: 25.0 mg/kg/injection, schedule: Q01DX009 (sc), vehicle: saline 179 % of control | dose: 25.0 mg/kg/injection, schedule: Q04DX003 (ip), vehicle: saline with Tween-80 153 % of control | dose: 44.0 mg/kg/injection, schedule: Q04DX003 (ip), vehicle: saline 168 % of control | dose: 50.0 mg/kg/injection, schedule: Q04DX003 (ip), vehicle: saline with Tween-80 242 % of control | [1] 188 % of control

N#CC(Nc1ccccc1C(N)=O)c1ccccc1 (configuration not stated)
inactive: dose: 100.0 mg/kg/injection, schedule: Q01DX009 (ip), vehicle: saline 95 % of control | dose: 200.0 mg/kg/injection, schedule: Q01DX009 (ip), vehicle: saline 106 % of control | dose: 400.0 mg/kg/injection, schedule: Q01DX009 (ip), vehicle: saline 91 % of control

C(=N\OCCc1ccccc1)/c1cccnc1
inactive: dose: 100.0 mg/kg/injection, schedule: Q01DX009 (ip), vehicle: saline sonified 98 % of control | dose: 200.0 mg/kg/injection, schedule: Q01DX009 (ip), vehicle: saline sonified 100 % of control | dose: 400.0 mg/kg/injection, schedule: Q01DX009 (ip), vehicle: saline sonified 102 % of control

c1ccc(CSCc2ccccc2)cc1
inactive: dose: 50.0 mg/kg/injection, schedule: Q01DX009 (ip), vehicle: Klucel (hydroxypropylcellulose) (HPC) 97 % of control | dose: 100.0 mg/kg/injection, schedule: Q01DX009 (ip), vehicle: Klucel (hydroxypropylcellulose) (HPC) 105 % of control | dose: 100.0 mg/kg/injection, schedule: Q04DX002 (ip), vehicle: Klucel (hydroxypropylcellulose) (HPC) 105 % of control | [1] 96 % of control | dose: 200.0 mg/kg/injection, schedule: Q01DX009 (ip), vehicle: Klucel (hydroxypropylcellulose) (HPC) 102 % of control and 86 % of control | dose: 200.0 mg/kg/injection, schedule: Q04DX002 (ip), vehicle: Klucel (hydroxypropylcellulose) (HPC) 105 % of control | [3] 104 % of control | [4] 86 % of control | dose: 400.0 mg/kg/injection, schedule: Q04DX002 (ip), vehicle: Klucel (hydroxypropylcellulose) (HPC) 105 % of control | dose: 400.0 mg/kg/injection, schedule: Q04DX003 (ip), vehicle: saline with Tween-80 96 % of control

CCCCCCCC(=O)Oc1ccc([N+](=O)[O-])cc1
inactive: dose: 75.0 mg/kg/injection, schedule: Q01DX001 (ip), vehicle: saline 100 % of control | dose: 150.0 mg/kg/injection, schedule: Q01DX001 (ip), vehicle: saline 109 % of control | dose: 300.0 mg/kg/injection, schedule: Q01DX001 (ip), vehicle: saline 95 % of control

O=C(O)C1CC2C=CC1C2 (configuration not stated)
inactive: dose: 100.0 mg/kg/injection, schedule: Q01DX009 (ip), vehicle: saline with Tween-80 101 % of control | [2] 102 % of control | dose: 200.0 mg/kg/injection, schedule: Q01DX009 (ip), vehicle: saline with Tween-80 101 % of control | dose: 200.0 mg/kg/injection, schedule: Q04DX003 (ip), vehicle: saline 94 % of control | dose: 400.0 mg/kg/injection, schedule: Q01DX009 (ip), vehicle: saline with Tween-80 102 % of control | dose: 400.0 mg/kg/injection, schedule: Q04DX003 (ip), vehicle: saline 105 % of control

O=c1[nH]cc[nH]1
inactive: dose: 100.0 mg/kg/injection, schedule: Q01DX001 (ip), vehicle: saline 100 % of control | dose: 178.0 mg/kg/injection, schedule: Q01DX009 (ip), vehicle: saline 109 % of control | dose: 200.0 mg/kg/injection, schedule: Q01DX001 (ip), vehicle: saline 105 % of control | dose: 267.0 mg/kg/injection, schedule: Q01DX009 (ip), vehicle: Klucel (hydroxypropylcellulose) (HPC) 106 % of control | dose: 267.0 mg/kg/injection, schedule: Q01DX009 (ip), vehicle: saline 119 % of control | dose: 267.0 mg/kg/injection, schedule: Q04DX003 (ip), vehicle: Klucel (hydroxypropylcellulose) (HPC) 105 % of control | dose: 400.0 mg/kg/injection, schedule: Q01DX001 (ip), vehicle: saline 109 % of control | [4] 117 % of control | dose: 400.0 mg/kg/injection, schedule: Q04DX003 (ip), vehicle: Klucel (hydroxypropylcellulose) (HPC) 104 % of control | dose: 600.0 mg/kg/injection, schedule: Q04DX003 (ip), vehicle: Klucel (hydroxypropylcellulose) (HPC) 109 % of control
